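Exposure lasted 48 hours, with cells grown in 96-well plates and compounds tested at five concentrations. TGI: concentration producing complete growth inhibition.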 Some results are limits rather than exact numbers.

Among the test systems are DMS 114 small cell lung; DLD-1 colon; DMS 273 small cell lung; M19-MEL melanoma; LXFL 529 NSCLC; HOP-18 NSCLC; KM20L2 colon; P388/ADR leukemia; SN12K1 renal; P388 leukemia.
What all share (test): NCI tumour cell line growth inhibition, 48 h

On to `C#CCN(Cc1ccc2nc(-c3ccccc3)c(Cl)nc2c1)c1ccc(Cl)c(Cl)c1`, for which the TGI with DMS 114 small cell lung, with DLD-1 colon, in the assay on DMS 273 small cell lung, in the assay on M19-MEL melanoma, with LXFL 529 NSCLC and with HOP-18 NSCLC was above 100 µM each time. In the assay with KM20L2 colon, the TGI was above 100 µM.

For `c1ccc(C2SCc3nc4ccccc4n32)cc1` (configuration not stated), the TGI with DMS 114 small cell lung was 63.4 µM; in the assay with DLD-1 colon, above 100 µM; in the assay with DMS 273 small cell lung it was above 100 µM; with M19-MEL melanoma it was above 100 µM; in the assay on HOP-18 NSCLC, 51.7 µM; in the assay on KM20L2 colon, above 100 µM.

`CCN1CC2(CO)CCC(OC)C34C5CC6C(OC)CC(O)(C5C6OC)C(O)(C(OC)C23)C14` (configuration not stated): the TGI in the assay on DMS 114 small cell lung was above 375 µM; in the assay with P388/ADR leukemia, above 80.8 µM; in the assay with DLD-1 colon, above 59.4 µM; in the assay on DMS 273 small cell lung, above 375 µM; in the assay with M19-MEL melanoma it was above 375 µM; in the assay with SN12K1 renal, above 375 µM. Further, the TGI in the assay on P388 leukemia was above 174 µM; with HOP-18 NSCLC it was above 375 µM; in the assay on KM20L2 colon, above 375 µM.

In the case of `O=C1C(Nc2ccc(S(=O)(=O)Nc3cnc4ccccc4n3)cc2)=CC(=Nc2ccc(S(=O)(=O)Nc3cnc4ccccc4n3)cc2)c2ccccc21`, the TGI worked out at 38 µM with DMS 114 small cell lung; 31.8 µM in the assay with DLD-1 colon; 24.4 µM with DMS 273 small cell lung; 30.8 µM in the assay on M19-MEL melanoma; 29.5 µM in the assay with LXFL 529 NSCLC; 26.9 µM in the assay on HOP-18 NSCLC. Also, the TGI in the assay with KM20L2 colon is 32 µM.

For `C#CCN1C(=O)CN2C(Cl)(Cl)C2(c2ccccc2)c2cc(Cl)ccc21` (configuration not stated), the TGI in the assay on DMS 114 small cell lung, in the assay with DLD-1 colon, with DMS 273 small cell lung, with M19-MEL melanoma, with LXFL 529 NSCLC and with HOP-18 NSCLC was above 100 µM in each case. The same molecule showed a TGI with KM20L2 colon above 100 µM.

For the molecule `COC(=O)C12CCC(CC1=O)C2(C)C` (configuration not stated), the TGI with DMS 114 small cell lung, with DLD-1 colon, with DMS 273 small cell lung, with HOP-18 NSCLC and in the assay with KM20L2 colon was above 100 µM throughout.

As for `O=C(Cn1cc(I)c(C(=O)NCC(O)CO)n1)NCC(O)CO` (configuration not stated), the TGI with DMS 114 small cell lung, in the assay on DLD-1 colon, in the assay on DMS 273 small cell lung, with M19-MEL melanoma, in the assay on LXFL 529 NSCLC and with HOP-18 NSCLC was above 100 µM throughout. Moreover, the TGI in the assay on KM20L2 colon was above 100 µM.

With `Nc1ccc2ncc(NCc3ccc(F)cc3)nc2c1`, the TGI in the assay with DMS 114 small cell lung, with DLD-1 colon, with DMS 273 small cell lung, in the assay on M19-MEL melanoma, in the assay on LXFL 529 NSCLC and in the assay with HOP-18 NSCLC was above 100 µM each time. For the same molecule, the TGI in the assay with KM20L2 colon was above 100 µM.

Consider `COc1ccc(/C=N/NC(=O)NCCNCCO)cc1`, for which the TGI in the assay with DMS 114 small cell lung, with DLD-1 colon, with DMS 273 small cell lung, in the assay on M19-MEL melanoma, in the assay on LXFL 529 NSCLC and with HOP-18 NSCLC was above 100 µM each time. In the assay with KM20L2 colon, the TGI was above 100 µM.

With `CC(=O)Nc1ccc(S(=O)(=O)Nc2cnc3ccccc3n2)cc1`, the TGI with DMS 114 small cell lung, in the assay with DLD-1 colon, in the assay on DMS 273 small cell lung, in the assay with M19-MEL melanoma, in the assay with LXFL 529 NSCLC and in the assay with HOP-18 NSCLC was above 100 µM each time. For the same molecule, the TGI in the assay on KM20L2 colon was above 100 µM.

Regarding `CCN(CC)CCNC(=O)C1COc2ccc(-c3cc(=O)c4ccccc4o3)cc2O1` (configuration not stated), the TGI is 37.1 µM in the assay on P388/ADR leukemia; above 77.7 µM in the assay with DLD-1 colon; 42.3 µM in the assay on DMS 273 small cell lung; 32.5 µM with M19-MEL melanoma; 31.1 µM in the assay with SN12K1 renal; 21.7 µM in the assay on P388 leukemia. Moreover, the TGI in the assay on HOP-18 NSCLC turned out to be 46.7 µM; with KM20L2 colon, 39 µM.

The record behind these values is PubChem BioAssay (NCI).
